# Measured values: ChEMBL document CHEMBL5244204, “Drug discovery approaches targeting 5-lipoxygenase-activating protein (FLAP) for inhibition of cellular leukotriene biosynthesis” (Eur J Med Chem, 2018)
# Columns and labels:
# Rattus norvegicus [1] = assay: In vivo inhibition of Leukotriene biosynthesis in pleural inflammation rat model assessed as reduction in LTB4 level at po dosed for 1 hr followed by calcium ionophore A-23187 administration and measured after 30 mins by enzyme immunoassay; assay type: functional; settings: time 1.5 hrs
# [2] = Inhibition of Leukotriene biosynthesis in calcium ionophore A-23187 stimulated human PMNL cells assessed as inhibition of LTB4 formation by enzyme immunoassay; assay type: functional, cell-based
# Prostaglandin E synthase = molecular target: T1, Prostaglandin E synthase (Homo sapiens, UniProt O14684); assay: Inhibition of mPGES-1 activity in IL-1beta human A549 microsome using PGH2 as substrate preincubated for 15 mins followed by substrate addition for 1 min by RP-HPLC analysis; assay type: microsomes
# T1 sequence (O14684 whole entry): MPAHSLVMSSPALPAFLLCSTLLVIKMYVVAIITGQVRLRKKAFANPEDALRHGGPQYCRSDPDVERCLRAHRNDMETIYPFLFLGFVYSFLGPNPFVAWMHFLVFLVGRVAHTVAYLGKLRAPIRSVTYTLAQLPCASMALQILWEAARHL
# [3] = molecular target: T2, Arachidonate 5-lipoxygenase-activating protein (Homo sapiens, UniProt P20292); assay: Inhibition of FLAP in human monocyte assessed as reduction in all-trans isomers of LTB4 and 5-HETE formation preincubated with enzyme for 15 mins followed by A23187 addition and measured after 10 mins by ELISA assay; assay type: cell-based
# T2 sequence (P20292 whole entry): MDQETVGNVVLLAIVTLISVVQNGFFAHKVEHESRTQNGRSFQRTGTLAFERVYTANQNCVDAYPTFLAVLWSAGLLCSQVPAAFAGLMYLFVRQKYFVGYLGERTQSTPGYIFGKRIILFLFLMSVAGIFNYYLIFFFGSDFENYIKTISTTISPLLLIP
# [4] = molecular target: T2, Arachidonate 5-lipoxygenase-activating protein; assay: Inhibition of FLAP in human neutrophil assessed as reduction in all-trans isomers of LTB4 and 5-HETE formation using arachidonic acid as substrate preincubated with enzyme for 15 mins followed by substrate addition and A23187 measured after 10 mins by ELISA assay; assay type: cell-based
# [5] = molecular target: T2, Arachidonate 5-lipoxygenase-activating protein; assay: Inhibition of FLAP in human whole blood assessed as reduction in all-trans isomers of LTB4 and 5-HETE formation preincubated with enzyme for 15 mins followed by fMLP addition and measured after 15 mins by HPLC analysis; assay type: tissue-based
# Rattus norvegicus [6] = assay: In vivo inhibition of Leukotriene biosynthesis in anaphylaxis rat model assessed as reduction in LTB4 level at po dosed; assay type: functional
# Homo sapiens = species: Homo sapiens; assay: Inhibition of Leukotriene biosynthesis in human whole blood assessed as inhibition of LTB4 formation; assay type: functional
# [7] = Inhibition of Leukotriene biosynthesis in human PMNL cells preincubated for 2 mins followed by calcium ionophore A23187 addition and measured after 5 mins by radioimmunoassay; assay type: functional, cell-based
# [8] = molecular target: T3, Polyunsaturated fatty acid 5-lipoxygenase (Rattus norvegicus, UniProt P12527); assay: Inhibition of 5-LOX in […] rat PMNL cells assessed as reduction in 5-LO product level incubated for 3 mins by scintillation counting method; assay type: cell-based
# T3 sequence (P12527 whole entry): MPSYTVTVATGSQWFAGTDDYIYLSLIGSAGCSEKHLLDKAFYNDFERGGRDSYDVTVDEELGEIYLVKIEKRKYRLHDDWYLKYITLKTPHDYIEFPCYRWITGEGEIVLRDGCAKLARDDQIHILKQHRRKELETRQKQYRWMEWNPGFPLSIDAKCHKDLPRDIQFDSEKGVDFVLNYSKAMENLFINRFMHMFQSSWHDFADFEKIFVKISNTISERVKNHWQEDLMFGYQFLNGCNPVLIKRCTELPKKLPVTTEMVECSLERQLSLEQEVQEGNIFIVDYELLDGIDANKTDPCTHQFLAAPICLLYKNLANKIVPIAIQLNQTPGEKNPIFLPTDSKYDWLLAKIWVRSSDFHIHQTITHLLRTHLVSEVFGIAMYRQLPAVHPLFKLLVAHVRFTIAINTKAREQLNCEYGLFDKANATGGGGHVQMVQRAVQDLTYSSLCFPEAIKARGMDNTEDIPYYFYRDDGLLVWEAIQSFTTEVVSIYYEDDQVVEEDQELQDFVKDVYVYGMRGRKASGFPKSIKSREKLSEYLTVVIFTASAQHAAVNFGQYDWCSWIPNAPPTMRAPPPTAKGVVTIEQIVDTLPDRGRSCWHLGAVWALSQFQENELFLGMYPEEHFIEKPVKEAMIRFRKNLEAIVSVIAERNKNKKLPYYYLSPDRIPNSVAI
# [9] = molecular target: T2, Arachidonate 5-lipoxygenase-activating protein; assay: Inhibition of FLAP in human whole blood assessed as reduction in LTB4 level preincubated for 15 mins followed by calcium ionophore A23187 addition and measured after 30 min; assay type: tissue-based
# [10] = molecular target: T2, Arachidonate 5-lipoxygenase-activating protein; assay: Inhibition of FLAP in human whole blood assessed as reduction of LTB4 formation preincubated with enzyme for 15 mins followed by calcimycin addition and measured after 30 mins by HTRF assay; assay type: tissue-based
# [11] = molecular target: T2, Arachidonate 5-lipoxygenase-activating protein; assay: Inhibition of FLAP in human monocyte assessed as reduction in all-trans isomers of LTB4 and 5-HETE formation preincubated with enzyme for 15 mins followed by Ca2+ ionophore-A23187 and measured after 10 mins by HPLC analysis; assay type: cell-based
# [12] = molecular target: T2, Arachidonate 5-lipoxygenase-activating protein; assay: Inhibition of FLAP in human PMNL cells assessed as reduction in all-trans isomers of LTB4 and 5-HETE formation preincubated with enzyme for 15 mins followed by Ca2+ ionophore-A23187 and measured after 10 mins by HPLC analysis; assay type: cell-based
# Rattus norvegicus [13] = assay: Anti-inflammatory activity against anaphylaxis in peritoneal cavity of rat model assessed as reduction in LTB4 level at po dosed by ELISA; assay type: functional
# [14] = Inhibition of Leukotriene biosynthesis in calcium ionophore A23187 stimulated human PMNL cells assessed as inhibition of LTB4 formation by cellular assay; assay type: functional, cell-based
# [15] = molecular target: T2, Arachidonate 5-lipoxygenase-activating protein; assay: Displacement of [125I]-L-691831 from recombinant human FLAP expressed in Sf9 insect cells incubated for 2 hr by scintillation proximity assay
# [16] = molecular target: T4, Polyunsaturated fatty acid 5-lipoxygenase (Homo sapiens, UniProt P09917); assay: Inhibition of 5-LOX in human whole blood assessed as inhibition of LTB4 formation preincubated for 10 mins followed by calcium ionophore A23187 addition and measured after 30 min by RIA/RP--HPLC analysis; assay type: tissue-based
# T4 sequence (P09917 whole entry): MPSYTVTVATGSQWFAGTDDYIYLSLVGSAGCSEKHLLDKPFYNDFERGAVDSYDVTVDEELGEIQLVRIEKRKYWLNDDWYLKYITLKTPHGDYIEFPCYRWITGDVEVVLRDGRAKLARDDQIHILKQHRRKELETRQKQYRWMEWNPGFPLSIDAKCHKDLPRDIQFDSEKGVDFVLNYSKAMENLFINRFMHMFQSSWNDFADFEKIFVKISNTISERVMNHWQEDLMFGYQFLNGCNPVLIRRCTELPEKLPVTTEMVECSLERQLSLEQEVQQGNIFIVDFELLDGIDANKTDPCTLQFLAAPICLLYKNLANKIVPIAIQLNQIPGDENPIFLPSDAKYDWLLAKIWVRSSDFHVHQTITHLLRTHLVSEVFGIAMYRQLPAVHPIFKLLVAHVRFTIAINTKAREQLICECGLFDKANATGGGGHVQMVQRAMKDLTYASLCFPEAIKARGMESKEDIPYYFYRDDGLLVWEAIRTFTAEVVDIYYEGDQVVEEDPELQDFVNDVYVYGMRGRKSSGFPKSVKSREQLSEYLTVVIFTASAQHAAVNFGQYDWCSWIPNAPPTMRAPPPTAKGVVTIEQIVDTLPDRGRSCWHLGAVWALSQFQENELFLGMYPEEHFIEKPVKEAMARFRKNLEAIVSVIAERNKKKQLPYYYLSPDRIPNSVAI
# [17] = molecular target: T4, Polyunsaturated fatty acid 5-lipoxygenase; assay: Inhibition of 5-LOX in human PMNL cells assessed as inhibition of LTB4 formation preincubated for 5 mins followed by calcium ionophore A23187 addition and measured after 6 min by HPLC analysis; assay type: cell-based
# [18] = molecular target: T2, Arachidonate 5-lipoxygenase-activating protein; assay: Inhibition of FLAP in human PMNL cells assessed as inhibition of 5-LO product LT formation preincubated for 15 mins followed by calcium ionophore A23187 addition and measured after 10 min by HPLC analysis; assay type: cell-based
# [19] = molecular target: T4, Polyunsaturated fatty acid 5-lipoxygenase; assay: Inhibition of recombinant human 5-LO expressed in Escherichia coli JM109 using arachidonic acid as substrate incubated for 10 mins by HPLC analysis
smiles,measurement,setting,value
CC(CCC(=O)O)(c1ccc(OCc2ccc3ccccc3n2)cc1)c1ccc(OCc2ccc3ccccc3n2)cc1,ED50,Rattus norvegicus [1],1.5 mg/kg
same,IC50,[2],23 nM
CC(C)Cc1ccc(C(C)c2nc3ccccc3n2Cc2ccccc2Cl)cc1 (stereo not drawn),IC50,Prostaglandin E synthase,200 nM
same,IC50,[3],40 nM
same,IC50,[4],150 nM
same,IC50,[5],4800 nM
C/C(=N\O[C@H](c1ccc(OCc2ccc3ccccc3n2)cc1)C1CCCCC1)C(=O)[O-].[Na+],ED50,Rattus norvegicus [6],0.4 mg/kg
same,IC50,Homo sapiens,870 nM
c1ccc(COCC(OCc2ccccc2)c2ccc(OCc3ccc4ccccc4n3)cc2)cc1 (stereo not drawn),IC50,[7],30 nM
O=C(O)CSC(CCCc1ccc(Cl)cc1)c1ccc(OCc2ccc3ccccc3n2)cc1 (stereo not drawn),IC50,[8],20 nM
Nc1cnc(-c2ccc(C3CCC3)c(Oc3ncccn3)c2F)cn1,IC50,[9],66 nM
CNC(=O)c1ccc(F)cc1-c1nc2cc(-c3cnc(N)nc3)ccc2n1C(C)(C)C,IC50,[10],130 nM
CNC(=O)c1ccc(C#N)cc1-c1nc2cc(-c3cnc(N)nc3)ccc2n1C(C)(C)C,IC50,[10],94 nM
CC(C)(C)n1c(-c2ccccc2C(=O)Nc2ccccn2)nc2cc(-c3cnc(N)nc3)ccc21,IC50,[10],2700 nM
Nc1cnc(-c2ccc(-c3ccccc3S(N)(=O)=O)cc2F)cn1,IC50,[9],390 nM
O=C(O)c1noc(-c2ccc(OCc3ccc4ccccc4n3)cc2)c1-c1ccc(Cl)cc1,IC50,[11],7 nM
same,IC50,[12],7 nM
CC(C)(/C=N/OCC(=O)O)Cc1c(SC(C)(C)C)c2cc(OCc3ccc4ccccc4n3)ccc2n1Cc1ccc(Cl)cc1,ED50,Rattus norvegicus [13],0.24 mg/kg
same,IC50,[14],12 nM
O=C(O)CSC(CCCc1ccccc1)(Cc1ccccc1)c1ccc(OCc2ccc3ccccc3n2)cc1 (stereo not drawn),IC50,[7],4 nM
Cc1ccn(-c2ccc(Cl)cc2-c2nc3cc(-c4cnc(N)nc4)ccc3n2C(C)(C)C)n1,IC50,[15],0.7 nM
O=C(O)[C@@H](c1ccc(OCc2ccc3ccccc3n2)cc1)C1CCCCCC1,IC50,[16],1100 nM
same,IC50,[17],42 nM
CC(C)(C)c1ccc(-c2cnc(N)cn2)c(F)c1,IC50,[9],600 nM
CC(C)(CO/N=C/C(=O)O)Cc1c(SC(C)(C)C)c2cc(OCc3ccc4ccccc4n3)ccc2n1Cc1ccc(Cl)cc1,ED50,Rattus norvegicus [13],0.9 mg/kg
same,IC50,[14],21 nM
O=C(O)CSC(CCCc1ccccc1)c1ccc(OCc2ccc3ccccc3n2)cc1 (stereo not drawn) [AZD-4769],IC50,[8],70 nM
CC1(C)Cc2c(-c3ccccc3)c(-c3ccc(Cl)cc3)c(CC(=O)O)n2C1 [LICOFELONE],IC50,[18],1700 nM
same,IC50,[19],> 10000 nM
O=C(O)[C@@H](c1ccc(OCc2ccc3ccccc3n2)cc1)C1CCCC1 [VELIFLAPON],IC50,[16],11600 nM
same,ED50,Rattus norvegicus [6],4 mg/kg
same,IC50,[17],220 nM
same,IC50,Homo sapiens,6000 nM
